According to PMC4456386, “Ligand Recognition of the Major Birch Pollen Allergen Bet v 1 is Isoform Dependent” (PLoS ONE, 2015):
Several values for one entry are separate records, joined by “and”; a condition that tells them apart may be missing. Equal entries are not always repeated. Entries after “also recorded” stand apart in the source; their conditions may differ.

Experiments:
Bet v 1d [1] = target: T1, Bet v 1d (Betula pendula, UniProt P43177); assay: UV/VIS equilibrium titration of flavonoids with Bet v 1d; format: binding, Betula verrucosa; settings: for Absorption maxima, Bet v 1d:Flavonoid: complex with Bet v 1d
T1 construct: made in house
T1 sequence (P43177 whole entry): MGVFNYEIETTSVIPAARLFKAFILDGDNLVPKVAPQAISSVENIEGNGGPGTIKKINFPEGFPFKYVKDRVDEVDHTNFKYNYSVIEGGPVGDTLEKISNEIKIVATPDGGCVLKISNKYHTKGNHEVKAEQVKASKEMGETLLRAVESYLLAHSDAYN
Protocol: (§1) All flavonoids and Bet v 1 isoforms were dissolved in 50 mM sodium phosphate, 50 mM NaCl, 10% (v/v) DMSO, pH 7.0, to a final concentration of 10 to 20 μM in 500 μl. Absorption spectra from 200–800 nm were recorded at 25°C in a 1 cm quartz cuvette (Hellma GmbH) using a 8453 UV-visible spectrophotometer (Agilent).
(§2) To further characterize flavonoid binding to Bet v 1, titration experiments were performed by adding small amounts of concentrated Bet v 1 isoform a, d or m to different flavonoids. Changes of flavonoid absorption occurring at specific wavelengths were plotted against the protein concentration. Prior to curve-fitting, absorbance data were corrected for dilution. If possible, the equilibrium dissociation constant (K d) was determined by non-linear regression analysis of the data with GraFit-5 (Version 5.0, Erithacus Software, UK) using the following Eq (1): ΔA=ΔAmax/2Q[(B+Q+Kd)-((B+Q+Kd)^2-[…])] (1) ΔA max, maximum change in absorbance at specific wavelengths; B, Bet v 1a concentration; Q, total flavonoid concentration.

Bet v 1a [2] = target: T2, Bet v 1a (Betula pendula, UniProt P15494); assay: 1H-15N HSQC NMR titration (chemical shift perturbation) of 15N-Bet v 1a; format: binding, Betula verrucosa; settings: for Kd per residue / Kd / Dissociation constant Kd (averaged Kd app): Bet v 1a; for binding to Bet v 1a (in words): 1H-15N HSQC titration
T2 construct: made in house
T2 sequence (P15494 whole entry): as the sequence (P43177 whole entry) above, with I8T, V31F, N58S, V92I, C113S, V114I, N126D counted along it
Protocol: (§3) All NMR experiments were performed at 298 K in 50 mM sodium phosphate buffer, 50 mM NaCl, pH 7.0, 10% deuterium oxide (^2H2O) with ^15N-uniformly labelled Bet v 1 isoforms using Bruker Avance 700 MHz and Avance 800 MHz spectrometers with cryogenically cooled triple-resonance probes equipped with pulsed field-gradient capabilities. NMR data were processed using NMRPipe and visualized with NMRViewJ [89]. Three-dimensional ^15N-edited NOESY (nuclear Overhauser enhancement spectroscopy, mixing times 120 ms) experiments to assign chemical shifts were obtained with 500 μM ^15N-labeled samples of Bet v 1 isoform d or m and yielded 91% of assigned residues for Bet v 1d and 89% for Bet v 1m. The sequence-specific assignments of the amide resonances of Bet v 1a are reported elsewhere.
(§4) Interaction of Q3OS with the Bet v 1 isoforms was measured by incubating 700 μM Q3OS with 50 μM of each ^15N-labeled Bet v 1 isoform in 50 mM sodium phosphate, 50 mM NaCl buffer, pH 7.0.
(§5) For titration experiments all other flavonoids were dissolved in deuterated DMSO, while glucose and galactose were dissolved in 50 mM sodium phosphate buffer, 50 mM NaCl, pH 7.0, 10% deuterium oxide and titrated stepwise to a final excess of up to 17-fold to protein samples (ca. 100 μM). […] CSPs for ligand binding were calculated based on Eq (2): […] (2) ΔδHN and ΔδN, chemical shift differences of amide proton and nitrogen resonances, respectively, in ppm.
(§6) K d values for flavonoid binding were determined with NMRViewJ [89]. All analysable amino acid residues that were unaffected by DMSO addition and showing CSPs > 0.08 ppm were fitted to a quadratic binding curve with default settings, and an average K d app was calculated (Table 1 and S1–S3 Tables). The CSPs of all residues showing CSPs > 0.04 ppm were mapped either on models of Bet v 1d and Bet v 1m or on the Bet v 1a structure (pdb code 1BV1, [29]).

[3] = UV/VIS absorption spectra of unbound flavonoids; format: physicochemical; settings: pH 7.0
Protocol: as §1

Bet v 1m [4] = target: T3, Bet v 1m (Betula pendula, UniProt P43186); assay: UV/VIS equilibrium titration of flavonoids with Bet v 1m; format: binding, Betula verrucosa; settings: for Absorption maxima, Bet v 1m:Flavonoid: complex with Bet v 1m
T3 construct: made in house
T3 sequence (P43186 whole entry): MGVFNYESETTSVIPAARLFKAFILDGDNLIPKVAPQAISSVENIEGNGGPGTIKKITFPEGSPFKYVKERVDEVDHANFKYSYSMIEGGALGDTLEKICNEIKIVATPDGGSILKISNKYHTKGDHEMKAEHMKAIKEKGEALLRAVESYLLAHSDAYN
Protocol: as §1, §2

Bet v 1m [5] = target: T3, Bet v 1m; assay: 1H-15N HSQC NMR titration (chemical shift perturbation) of 15N-Bet v 1m; format: binding, Betula verrucosa
Protocol: as §3, §4, §5, §6

Bet v 1a [6] = target: T2, Bet v 1a; assay: UV/VIS equilibrium titration of flavonoids with Bet v 1a; format: binding, Betula verrucosa; settings: for Kd: Dissociation constant Kd, UV/VIS titration, 298 K, pH 7.0, 10% DMSO, error = standard error of fit; for Absorption maxima, Bet v 1a:Flavonoid: complex with Bet v 1a
Protocol: as §1, §2

Bet v 1d [7] = target: T1, Bet v 1d; assay: 1H-15N HSQC NMR titration (chemical shift perturbation) of 15N-Bet v 1d; format: binding, Betula verrucosa; settings: for binding to Bet v 1d (in words): 1H-15N HSQC titration, up to 15-fold excess
Protocol: as §3, §4, §5, §6

Bet v 1m [8] = target: T3, Bet v 1m; assay: 1H-15N HSQC NMR titration (chemical shift perturbation) of 15N-Bet v 1m; format: binding, Betula verrucosa; settings: 1H-15N HSQC titration, up to 15-fold excess
[9] = test system: serum IgE binding to surface-coated Bet v 1a, Bet v 1d and Bet v 1m; assay: Indirect ELISA for IgE binding to Bet v 1 isoforms; parameters: species or system human; settings: 5-fold molar excess of ligand; isoforms a, d, m
Text: Fifteen sera of birch pollen-allergic subjects were collected, tested, and pooled according to the guideline of the European Medicines Agency (EMEA/CHMP/BWP/304831/2007). The serum pool is routinely used for batch-release testing of birch pollen-derived allergenic products at the Paul-Ehrlich-Institut. The same serum pool was used for both, ELISA and mediator release assays.
For IgE-ELISA experiments, Maxisorp plates (Nunc via Fisher Scientific) were coated overnight at room temperature with 50 ng/100 μl recombinant Bet v 1 isoforms a, d, or m with a 5-fold molar excess of quercetin-3-O-sophorose, rutin, quercetin, quercetin-3-O-glucoside, quercetin-3-O-galactoside, or sophorose, respectively, in phosphate-buffered saline (PBS). After blocking with PBS containing 2% bovine serum albumin (BSA) these plates and an uncoated control were incubated with a dilution series of a serum pool of birch-pollen allergic subjects for 1 h at room temperature with PBS containing 0.05% Tween 20 and 0.1% BSA. Allergen-specific human IgE was detected with a horseradish peroxidase-conjugated mouse anti-human IgE antibody (Clone B3102E8, Southern biotech via Biozol, Eching, Germany) diluted 1:1000. 3,3′,5,5′-tetramethylbenzidine (Roth, Karlsruhe) was used as substrate for horseradish peroxidase, and the absorbance at 450 nm was measured after stopping the reaction with 25% H2SO4.

[10] = one value per residue with Δδnorm > 0.08 ppm (residue named left of the cell), Int. Ex. = intermediate exchange
[11] = Dissociation constant Kd (averaged Kd app), NMR, average of all analysable residues with CSPs > 0.08 ppm, ± standard deviation
[12] = Kd per residue, one value per residue with Δδnorm > 0.08 ppm (residue named left of the cell), Int. Ex. = intermediate exchange
[13] = NMR, average of all analysable residues with CSPs > 0.08 ppm, ± standard deviation
[14] = NMR, Bet v 1d, average of all analysable residues with CSPs > 0.08 ppm, ± standard deviation
[15] = NMR, average of all analysable residues with CSPs > 0.08 ppm, ± standard deviation, read-out: Dissociation constant Kd (averaged Kd app)

Structure (SMILES)	Kd (Bet v 1d [1])	Absorption maxima, Bet v 1d:Flavonoid (Bet v 1d [1])	Kd per residue (Bet v 1a [2]; [10])	Kd (Bet v 1a [2]; [11])	Absorption maxima, Flavonoid [3]	Kd (Bet v 1m [5]; [11])	Kd per residue (Bet v 1m [5]; [10])	Kd (Bet v 1a [6]; Bet v 1a)	Absorption maxima, Bet v 1a:Flavonoid (Bet v 1a [6])	binding to Bet v 1a (in words) (Bet v 1a [2])	binding to Bet v 1d (in words) (Bet v 1d [7])	Dissociation constant Kd (averaged Kd app) (Bet v 1d [7]; [14])	binding to Bet v 1m (in words) (Bet v 1m [8])	influence of ligand on IgE binding of Bet v 1 isoforms [9]	Kd (Bet v 1a [2]; [12])	other results
O=C1C[C@@H](c2ccc(O)cc2)Oc2cc(O)cc(O)c21 [Naringenin, naringenin]	37.7 ± 6.4 µM	325 nm	Int. Ex.	~30 µM and 30 µM	325 nm	22.1 ± 5.5 µM	Int. Ex.	60.6 ± 3.2 µM	325 nm							Kd (Bet v 1m [4]): 28.1 ± 0.8 µM; Absorption maxima, Bet v 1m:Flavonoid (Bet v 1m [4]): 322 nm; Kd (Bet v 1m [5]; [12]): 8.2 µM and 13.6 µM and 19 µM and 39.6 µM and 27.1 µM
O=C[C@H](O)[C@@H](O)[C@@H](O)[C@H](O)CO [Galactose, galactose]										no detectable affinity	no detectable affinity	No binding	no detectable affinity			Dissociation constant Kd (averaged Kd app) (Bet v 1a [2]; [13]): No binding; Dissociation constant Kd (averaged Kd app) (Bet v 1m [5]; [13]): No binding
O=c1c(O[C@@H]2O[C@H](CO)[C@H](O)[C@H](O)[C@H]2O)c(-c2ccc(O)c(O)c2)oc2cc(O)cc(O)c12 [Q3OGal, quercetin-3-O-galactoside]			Int. Ex.		358 nm		Int. Ex.			high affinity; also recorded: strong	Weak affinity; also recorded: did not produce significant CSPs	No binding	High affinity	did not modify IgE-binding		Kd (Bet v 1a [2]; [15]): < 5 µM; Kd (Bet v 1m [5]; [15]): < 5 µM
O=c1c(O[C@@H]2O[C@H](CO)[C@@H](O)[C@H](O)[C@H]2O)c(-c2ccc(O)c(O)c2)oc2cc(O)cc(O)c12 [Q3OGlc, quercetin-3-O-glucoside]			Int. Ex.	288 µM	364 nm	< 5 µM	Int. Ex.			weak	Weak affinity; also recorded: did not produce significant CSPs	No binding	High affinity; also recorded: strongly binds	did not modify IgE-binding	357 µM and 259 µM and 285 µM and 252 µM	
OC[C@H]1O[C@@H](O[C@H]2C(O)O[C@H](CO)[C@@H](O)[C@@H]2O)[C@H](O)[C@@H](O)[C@@H]1O (stereo partly drawn) [sophorose]														did not modify IgE-binding		
C[C@@H]1O[C@@H](OC[C@H]2O[C@@H](Oc3c(-c4ccc(O)c(O)c4)oc4cc(O)cc(O)c4c3=O)[C@H](O)[C@@H](O)[C@@H]2O)[C@H](O)[C@H](O)[C@H]1O [rutin]														did not modify IgE-binding		
O=c1c(O)c(-c2ccc(O)c(O)c2)oc2cc(O)ccc12 [Fisetin, fisetin]	13.9 ± 2.1 µM	371 nm	Int. Ex.	37.2 ± 6.5 µM	368 nm	85.1 ± 21.7 µM	Int. Ex.	14.3 ± 1.1 µM	372 nm						18.2 µM and 39.4 µM and 72.5 µM and 16.1 µM and 53.5 µM and 48 µM and 36.8 µM and 18.6 µM and 28.6 µM and 17.4 µM and 16.8 µM	Kd (Bet v 1m [4]): 68.6 ± 12.4 µM; Absorption maxima, Bet v 1m:Flavonoid (Bet v 1m [4]): 370 nm; Kd (Bet v 1m [5]; [12]): 150 µM and 28.9 µM and 109 µM and 111 µM and 81.3 µM and 20.4 µM
O=c1c(O)c(-c2ccc(O)c(O)c2)oc2cc(O)cc(O)c12 [Quercetin, quercetin]	10.2 ± 1 µM	382 nm	Int. Ex.	31.4 ± 10.3 µM	377 nm	65.8 ± 8.2 µM	Int. Ex	9.2 ± 0.6 µM	382 nm					did not modify IgE-binding	69.1 µM and 36.8 µM and 11.1 µM and 21.6 µM and 18.6 µM	Kd (Bet v 1m [4]): 26.5 ± 1.5 µM; Absorption maxima, Bet v 1m:Flavonoid (Bet v 1m [4]): 381 nm
O=c1c(O)c(-c2cc(O)c(O)c(O)c2)oc2cc(O)cc(O)c12 [Myricetin, myricetin]	1.2 ± 0.2 µM	382 nm	Int. Ex.	14.6 ± 6.5 µM	378 nm	99.3 ± 19.4 µM	Int. Ex.	4.2 ± 0.7 µM	387 nm						5 µM and 11.6 µM and 26.9 µM	fold higher affinity than flavone (Bet v 1d [1]; Bet v 1d): 60 fold; Kd (Bet v 1m [5]; [12]): 75.3 µM and 161 µM and 24.4 µM and 88.5 µM and 126 µM and 120 µM; fold higher affinity than flavone (Bet v 1a [6]; Bet v 1a): 15 fold
OC[C@H]1OC(O)[C@H](O)[C@@H](O)[C@@H]1O (stereo partly drawn) [Glucose, glucose]										no detectable affinity	no detectable affinity	No binding	no detectable affinity			Dissociation constant Kd (averaged Kd app) (Bet v 1a [2]; [13]): No binding; Dissociation constant Kd (averaged Kd app) (Bet v 1m [5]; [13]): No binding
O=c1cc(-c2ccccc2)oc2ccccc12 [Flavone, flavone]				67.1 ± 12.1 µM	302 nm	213 ± 36.6 µM										Kd (Bet v 1d [7]; Dissociation constant Kd (averaged Kd app), NMR, Bet v 1d, average of all analysable residues with CSPs > 0.08 ppm, ± standard deviation): 69.9 ± 14.8 µM
